From US12458021B2, “Microbiocidal derivatives” (SYNGENTA CROP PROTECTION AG, priority 2019, dated 2025)

Assays:
[1] = system: Puccinia recondita f. sp. tritici; experiment: Puccinia recondita f. sp. tritici / wheat / leaf disc preventative (brown rust); type: in vivo; conditions: foliar, wheat leaf segments cv. Kanzler, inoculated 1 day after application, assessed 7-9 days after application, read-out: control of Puccinia recondita f. sp. tritici, preventative (percent disease control compared to untreated)
In short: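 Wheat leaf segments (cv. Kanzler) on agar were sprayed with formulated compound, then inoculated with spores 1 day later. Segments were incubated at 19 °C, 75% rh with 12 h light/dark. Percent disease control versus untreated was scored 7–9 days after application.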

Sclerotinia sclerotiorum = Sclerotinia sclerotiorum / liquid culture (cottony rot); type: cell-based; conditions: PDB potato dextrose broth, mycelia fragments, 24° C., 3-4 days after application, read-out: control of Sclerotinia sclerotiorum (inhibition of growth, photometric)
Method: Example B14: Sclerotinia sclerotiorum/Liquid Culture (Cottony Rot) Mycelia fragments of a newly grown liquid culture of the fungus are directly mixed into nutrient broth (PDB potato dextrose broth). After placing a (DMSO) solution of test compound into a microtiter plate (96-well format) the nutrient broth containing the fungal material is added. The test plates are incubated at 24° C. and the inhibition of growth is determined photometrically 3-4 days after application.

[2] = system: Blumeria graminis f. sp. tritici (Erysiphe graminis f. sp. tritici); experiment: Blumeria graminis f. sp. tritici / wheat / leaf disc preventative (powdery mildew on wheat); type: in vivo; conditions: foliar, wheat leaf segments cv. Kanzler, inoculated 1 day after application, assessed 6-8 days after application, read-out: control of Blumeria graminis f. sp. tritici (percent disease control compared to untreated)
Text: Example B4: Blumeria graminis f. sp. tritici (Erysiphe graminis f. sp. tritici)/Wheat/Leaf Disc Preventative (Powdery Mildew on Wheat) Wheat leaf segments cv. Kanzler are placed on agar in a multiwell plate (24-well format) and sprayed with the formulated test compound diluted in water. The leaf disks are inoculated by shaking powdery mildew infected plants above the test plates 1 day after application. […] […]-192.

[3] = system: Mycosphaerella graminicola (Septoria tritici); experiment: Mycosphaerella graminicola (Septoria tritici) / liquid culture (Septoria blotch); type: cell-based; conditions: Zymoseptoria tritici, PDB potato dextrose broth, 24° C., 4-5 days after application, read-out: control of Mycosphaerella graminicola (inhibition of growth, photometric)
In short: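 Conidia from cryogenic storage were mixed into potato dextrose broth and added to test compound in DMSO. Plates were incubated at 24° C, and growth inhibition was read photometrically 4-5 days after application.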

[4] = system: Magnaporthe grisea (Pyricularia oryzae); experiment: whole plant or invertebrate; type: in vivo; conditions: foliar, read-out: control of Magnaporthe grisea (percent disease control compared to untreated)
[5] = system: Glomerella lagenarium (Colletotrichum lagenarium); experiment: Glomerella lagenarium (Colletotrichum lagenarium) / liquid culture (anthracnose); type: cell-based; conditions: Colletotrichum orbiculare, PDB potato dextrose broth, 24° C., 3-4 days after application, read-out: control of Glomerella lagenarium (inhibition of growth, photometric)
In short: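 Conidia from cryogenic storage suspended in potato dextrose broth and added to DMSO compound solution in plates. Incubated at 24° C; growth inhibition read photometrically 3-4 days after application.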

Pyrenophora teres = Pyrenophora teres / barley / leaf disc preventative (net blotch); type: in vivo; conditions: foliar, barley leaf segments cv. Hasso, inoculated 2 days after application, assessed 5-7 days after application, read-out: control of Pyrenophora teres (disease control compared to untreated)
In short: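 Barley cv. Hasso leaf discs on agar were sprayed with diluted formulated compound, then inoculated with spore suspension 2 days later. Incubation at 20 °C, 65% rh, 12 h light/dark; disease control versus untreated assessed 5-7 days after application.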

Alternaria solani = Alternaria solani / tomato / leaf disc (early blight); type: in vivo; conditions: foliar, tomato leaf disks cv. Baby, inoculated 2 days after application, assessed 5-7 days after application, read-out: control of Alternaria solani (percent disease control compared to untreated)
Method: Example B1: Alternaria solani/Tomato/Leaf Disc (Early Blight) Tomato leaf disks cv. Baby are placed on agar in multiwell plates (24-well format) and sprayed with the formulated test compound diluted in water. The leaf disks are inoculated with a spore suspension of the fungus 2 days after application. The inoculated leaf disks are incubated at 23° C./21° C. […] […]-185.

[6] = system: Phaeosphaeria nodorum (Septoria nodorum); experiment: Phaeosphaeria nodorum (Septoria nodorum) / wheat / leaf disc preventative (glume blotch); type: in vivo; conditions: Parastagonospora nodorum, foliar, wheat leaf segments cv. Kanzler, inoculated 2 days after application, assessed 5-7 days after application, read-out: control of Phaeosphaeria nodorum (percent disease control compared to untreated)
In short: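 Wheat cv. Kanzler leaf discs on agar were sprayed with formulated compound diluted in water and inoculated with spores 2 days later. Discs were kept at 20° C, 75% rh, 12 h light/dark; percent disease control versus untreated was scored 5-7 days after application.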

[7] = system: Monographella nivalis (Microdochium nivale); experiment: Monographella nivalis (Microdochium nivale) / liquid culture (foot rot cereals); type: cell-based; conditions: PDB potato dextrose broth, 24° C., 4-5 days after application, read-out: control of Monographella nivalis (inhibition of growth, photometric)
In short: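 Cryostored M. nivalis conidia mixed into potato dextrose broth and added to 96-well plates holding test compound in DMSO. Incubated at 24° C; growth inhibition read photometrically 4-5 days after application.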

[8] = system: Puccinia recondita f. sp. tritici; experiment: Puccinia recondita f. sp. tritici / wheat / leaf disc curative (brown rust); type: in vivo; conditions: foliar, wheat leaf segments cv. Kanzler, compound applied 1 day after inoculation, assessed 6-8 days after application, read-out: control of Puccinia recondita f. sp. tritici, curative (percent disease control compared to untreated)
Method: Example B10: Puccinia recondita f. sp. tritici/Wheat/Leaf Disc Curative (Brown Rust) Wheat leaf segments cv. Kanzler are placed on agar in multiwell plates (24-well format). The leaf segments are inoculated with a spore suspension of the fungus. Plates are stored in darkness at 19° C. and 75% rh. The formulated test compound diluted in water is applied 1 day after inoculation. […] […]-185.

[9] = system: Botryotinia fuckeliana (Botrytis cinerea); experiment: Botryotinia fuckeliana (Botrytis cinerea) / liquid culture (gray mould); type: cell-based; conditions: Vogels broth, 24° C., 3-4 days after application, read-out: control of Botryotinia fuckeliana (inhibition of growth, photometric)
In short: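 Botrytis cinerea conidia in Vogels broth were added to compound supplied as DMSO solution. Plates were incubated at 24 °C, and growth inhibition was read photometrically 3-4 days after application.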

[10] = system: Mycosphaerella arachidis (Cercospora arachidicola); experiment: Mycosphaerella arachidis (Cercospora arachidicola) / liquid culture (early leaf spot); type: cell-based; conditions: PDB potato dextrose broth, 24° C., 4-5 days after application, read-out: control of Mycosphaerella arachidis (inhibition of growth, photometric)
In short: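 Conidia from cryogenic storage suspended in potato dextrose broth and added to compound in DMSO. Incubation at 24° C; growth inhibition read photometrically 4-5 days after application.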

COc1ccc(Nc2cc(F)nc(F)c2)nc1C(=O)NC1CCC1(C)C (stereo not shown) [Compound P-4, 6-[(2,6-difluoro-4-pyridyl)amino]-N-(2,2-dimethylcyclobutyl)-3-methoxy-pyridine-2-carboxamide]
≥ 80%: pest or weed control at 200 ppm [1] | inhibition at 20 ppm (Sclerotinia sclerotiorum) | pest or weed control at 200 ppm [2] | inhibition at 20 ppm [3] | pest or weed control at 200 ppm [4] | inhibition at 20 ppm [5] | pest or weed control at 200 ppm (Pyrenophora teres) | pest or weed control at 200 ppm (Alternaria solani) | pest or weed control at 200 ppm [6] | inhibition at 20 ppm [7] | pest or weed control at 200 ppm [8]

COc1ccc(Nc2cc(F)nc(F)c2)nc1C(=O)NC(C)(C)C [Compound P-91, N-tert-butyl-6-[(2,6-difluoro-4-pyridyl)amino]-3-methoxy-pyridine-2-carboxamide]
≥ 80%: pest or weed control at 200 ppm [1] | pest or weed control at 200 ppm [2] | inhibition at 20 ppm [3] | pest or weed control at 200 ppm [4] | inhibition at 20 ppm [5] | pest or weed control at 200 ppm (Alternaria solani) | inhibition at 20 ppm [7] | pest or weed control at 200 ppm [8]

COc1ccc(Nc2cc(F)cc(F)c2)nc1C(=O)NC(C)(C)C [Compound P-93, N-tert-butyl-6-(3,5-difluoroanilino)-3-methoxy-pyridine-2-carboxamide]
≥ 80%: pest or weed control at 200 ppm [1] | pest or weed control at 200 ppm [2] | inhibition at 20 ppm [3] | inhibition at 20 ppm [9] | pest or weed control at 200 ppm [4] | inhibition at 20 ppm [10] | inhibition at 20 ppm [5] | pest or weed control at 200 ppm (Pyrenophora teres) | pest or weed control at 200 ppm (Alternaria solani) | pest or weed control at 200 ppm [6] | inhibition at 20 ppm [7] | pest or weed control at 200 ppm [8]

COc1ccc(Nc2cc(F)nc(F)c2)nc1C(=O)NC1(C)CCCC1 [Compound P-109, 6-[(2,6-difluoro-4-pyridyl)amino]-3-methoxy-N-(1-methylcyclopentyl)pyridine-2-carboxamide]
≥ 80%: pest or weed control at 200 ppm [1] | inhibition at 20 ppm (Sclerotinia sclerotiorum) | pest or weed control at 200 ppm [2] | inhibition at 20 ppm [3] | pest or weed control at 200 ppm [4] | inhibition at 20 ppm [5] | pest or weed control at 200 ppm (Pyrenophora teres) | pest or weed control at 200 ppm (Alternaria solani) | inhibition at 20 ppm [7] | pest or weed control at 200 ppm [8]

COc1ccc(Nc2cc(F)cc(F)c2)nc1C(=O)NC1(C)CCC1 [Compound P-118, 6-(3,5-difluoroanilino)-3-methoxy-N-(1-methylcyclobutyl)pyridine-2-carboxamide]
≥ 80%: pest or weed control at 200 ppm [1] | pest or weed control at 200 ppm [2] | inhibition at 20 ppm [3] | inhibition at 20 ppm [9] | pest or weed control at 200 ppm [4] | inhibition at 20 ppm [10] | inhibition at 20 ppm [5] | pest or weed control at 200 ppm (Pyrenophora teres) | pest or weed control at 200 ppm (Alternaria solani) | pest or weed control at 200 ppm [6] | inhibition at 20 ppm [7] | pest or weed control at 200 ppm [8]

COc1ccc(Nc2cc(F)nc(F)c2)nc1C(=O)NC1(C)CCC1 [Compound P-127, 6-[(2,6-difluoro-4-pyridyl)amino]-3-methoxy-N-(1-methylcyclobutyl)pyridine-2-carboxamide]
≥ 80%: pest or weed control at 200 ppm [1] | pest or weed control at 200 ppm [2] | inhibition at 20 ppm [3] | pest or weed control at 200 ppm [4] | inhibition at 20 ppm [5] | pest or weed control at 200 ppm (Pyrenophora teres) | pest or weed control at 200 ppm (Alternaria solani) | inhibition at 20 ppm [7] | pest or weed control at 200 ppm [8]

COc1ccc(Nc2cc(F)cc(Cl)c2)nc1C(=O)NC(C)(C)C [Compound P-152, N-tert-butyl-6-(3-chloro-5-fluoro-anilino)-3-methoxy-pyridine-2-carboxamide]
≥ 80%: pest or weed control at 200 ppm [1] | inhibition at 20 ppm (Sclerotinia sclerotiorum) | pest or weed control at 200 ppm [2] | inhibition at 20 ppm [3] | inhibition at 20 ppm [9] | pest or weed control at 200 ppm [4] | inhibition at 20 ppm [10] | inhibition at 20 ppm [5] | pest or weed control at 200 ppm (Pyrenophora teres) | pest or weed control at 200 ppm (Alternaria solani) | pest or weed control at 200 ppm [6] | inhibition at 20 ppm [7]

COc1ccc(Nc2ccnc(F)c2)nc1C(=O)NC(C)(C)C [Compound P-156, N-tert-butyl-6-[(2-fluoro-4-pyridyl)amino]-3-methoxy-pyridine-2-carboxamide]
≥ 80%: pest or weed control at 200 ppm [1] | pest or weed control at 200 ppm [2] | pest or weed control at 200 ppm [4] | inhibition at 20 ppm [5] | pest or weed control at 200 ppm [8]

COc1ccc(Nc2cccc(F)c2)nc1C(=O)NC(C)(C)C [Compound P-160, N-tert-butyl-6-(3-fluoroanilino)-3-methoxy-pyridine-2-carboxamide]
≥ 80%: pest or weed control at 200 ppm [1] | inhibition at 20 ppm (Sclerotinia sclerotiorum) | pest or weed control at 200 ppm [2] | inhibition at 20 ppm [3] | inhibition at 20 ppm [9] | pest or weed control at 200 ppm [4] | inhibition at 20 ppm [10] | inhibition at 20 ppm [5] | pest or weed control at 200 ppm (Pyrenophora teres) | pest or weed control at 200 ppm (Alternaria solani) | pest or weed control at 200 ppm [6] | inhibition at 20 ppm [7] | pest or weed control at 200 ppm [8]

COc1ccc(Nc2cc(F)c(F)c(F)c2)nc1C(=O)NC(C)(C)C [Compound P-162, N-tert-butyl-3-methoxy-6-(3,4,5-trifluoroanilino)pyridine-2-carboxamide]
≥ 80%: pest or weed control at 200 ppm [1] | inhibition at 20 ppm (Sclerotinia sclerotiorum) | pest or weed control at 200 ppm [2] | inhibition at 20 ppm [3] | inhibition at 20 ppm [9] | pest or weed control at 200 ppm [4] | inhibition at 20 ppm [10] | inhibition at 20 ppm [5] | pest or weed control at 200 ppm (Pyrenophora teres) | pest or weed control at 200 ppm (Alternaria solani) | inhibition at 20 ppm [7] | pest or weed control at 200 ppm [8]

COc1ccc(Nc2cc(F)nc(F)c2)nc1C(=O)NC1(C(C)(C)C)CCC1 [Compound P-185, N-(1-tert-butylcyclobutyl)-6-[(2,6-difluoro-4-pyridyl)amino]-3-methoxy-pyridine-2-carboxamide]
≥ 80%: pest or weed control at 200 ppm [1] | pest or weed control at 200 ppm [2] | inhibition at 20 ppm [3] | pest or weed control at 200 ppm [4] | pest or weed control at 200 ppm (Pyrenophora teres) | pest or weed control at 200 ppm (Alternaria solani) | inhibition at 20 ppm [7] | pest or weed control at 200 ppm [8]
